What was measured:
[1] = tested on: A375; test: MTT survival, A375 melanoma; format: cell-based, human; conditions: A375, 10 μM
Method: (§1) Next, in vitro cytotoxicity of the multiple compounds in various cell lines was evaluated, which also was performed using MTT colorimetric assay. […] Comparing breast cancer cells MCF-7 with other cancer cells, most selected compounds had higher inhibition activity to MCF-7 cells. Therefore, breast cancer cells MCF-7 were chosen to be the research target in the following experiments.

[2] = tested on: MCF-7; test: MTT survival, MCF-7 breast cancer; format: cell-based, human; conditions: MCF-7, 10 μM
Method: as §1

[3] = tested on: Ca-922; test: MTT survival, Ca-922 oral cancer; format: cell-based, human; conditions: Ca-922, 10 μM
Method: as §1

[4] = tested on: 293T; test: MTT survival, 293T kidney cancer; format: cell-based, human
Method: as §1

[5] = tested on: A549; test: MTT survival, A549 lung cancer; format: cell-based, human; conditions: A549, 10 μM
Method: as §1

[6] = tested on: melanoma cells B16 tumor; test: Antitumor activity in B16 tumor-bearing mice; format: in vivo; conditions: injection into sole of feet, B16 in C57BL/6 mice
Method: Firstly, a total of 5×10^6 melanoma cells B16 were inoculated into female C57BL/6 mice (about 19˜21 grams/7 to 9 weeks). […] When tumor reached about 4 mm×4 mm in diameter, mice were separated into groups. Each group had four mice in each experiment. Tumor volume were majored by calipers each two days after compound injection into each sole of feet of mice or without compound injection (control), and tumor volume was calculated by following formula: Tumor volume=[…] (Equation I)

[7] = tested on: mouse melanoma cells B16; test: MTT growth inhibition on murine melanoma cells (FIG. 1); format: cell-based; conditions: 10 μM, 48 hours
Method: In addition, for recognizing whether the prepared disulfides had cytotoxicity to normal cells and murine cells, human dermal fibroblasts and mouse melanoma cells B16 were selected as the models using MTT colorimetric assay. First, fibroblasts or B16 cells were seeded in 96-well culture plate at 2500 cells per well and cultivated overnight until cell attachment. Each compound (10 μM) was added into the culture media in triplicate and incubated for 48 hours, and finally MTT reagent was added into each well to detect absorbance.
Please refer to FIG. 1, which illustrates the growth inhibition of various compounds to human dermal fibroblast and B16 cells.

[8] = tested on: Cal-27; test: MTT survival, Cal-27 oral cancer; format: cell-based, human; conditions: Cal-27, 10 μM
Method: as §1

[9] = tested on: breast cancer cells MCF-7; test: Cell cycle analysis by flow cytometry (PI staining); format: cell-based, human; conditions: MCF-7, 5 μM, 24 hours; control 11.54%
Method: This experiment was performed by treating breast cancer cells MCF-7 with compounds, and then cell cycle was analyzed using flow cytometry known by the skilled person in the art. Firstly, breast cancer cells MCF-7 were treated with the prepared compounds (5 μM) for 24 hours and stained with propidium iodide (PI). Approximately 10000 cells from each sample were analyzed with FACScan flow cytometer and software. […] The sub-G1 DNA Peaks for compounds 4, 5, 7, 18, 21, 23 and 24 were 20.64%, 17.92%, 26.22%, 11.95%, 19.85%, 4.35% and 33.89% respectively (data not shown), while the sub-G1 DNA peak for control (without any drug treatment) was 11.54%.

[10] = tested on: A2058; test: MTT survival, A2058 melanoma; format: cell-based, human; conditions: A2058, 10 μM
Method: as §1

[11] = tested on: H1335; test: MTT survival, H1335 lung cancer; format: cell-based, human; conditions: H1335, 10 μM
Method: as §1

[12] = tested on: phosphorylated p38 protein; test: Phosphorylated p38 expression by immunoblotting in MCF-7 cells; format: cell-based, human; conditions: MCF-7, 24-hour treatment, different concentrations
Method: P38 protein in p38 mitogen-activated protein kinase (MAPK) pathway was chosen to be the index of apoptosis in this experiment, and phosphorylated p38 expression was evaluated using immunoblotting assay known by the skilled person in the art. Cellular protein was harvested after the 24-hour treatment of compound 24 on MCF-7 cells, and then resolved with sodium dodecyl sulfate (SDS)-polyacrylamide gel electrophoresis and developed using immunoblotting. […] In combination with aforementioned experimental results, compound 24 and other compounds could induce cancer cell apoptosis.

## Cc1c(N=C(SSC(=Nc2cccc([N+](=O)[O-])c2C)c2ccc(C(F)(F)F)cc2)c2ccc(C(F)(F)F)cc2)cccc1[N+](=O)[O-] [Compound 24]
[1]
  Survival (% control) of compound (10 μM): 59.5 ± 0.22 % control
[2]
  Survival (% control) of compound (10 μM): 8.6 ± 0.64 % control
[3]
  Survival (% control) of compound (10 μM): 45.5 ± 0.22 % control
[4]
  Survival (% control) of compound (10 μM): 24.2 ± 0.59 % control
[5]
  Survival (% control) of compound (10 μM): 53.4 ± 0.15 % control
[6]; 2 mg/kg
  tumor volume over time: not markedly increased
[6]; 4 mg/kg
  tumor volume compared to the untreated group: significantly suppressed
[7]
  growth inhibition / apoptosis in murine melanoma B16: significantly made
[8]
  Survival (% control) of compound (10 μM): 73.5 ± 0.22 % control
[9]
  sub-G1 DNA peak: 33.89%
[10]
  Survival (% control) of compound (10 μM): 34.9 ± 0.42 % control
[11]
  Survival (% control) of compound (10 μM): 26.0 ± 0.32 % control
[12]
  phosphorylation of p38 protein: dependent on the concentration

## O=[N+]([O-])c1ccc(C(=Nc2ccc(Cl)cc2)SSC(=Nc2ccc(Cl)cc2)c2ccc([N+](=O)[O-])cc2)cc1 [Compound 5]
[1]
  Survival (% control) of compound (10 μM): 79.4 ± 0.11 % control
[2]
  Survival (% control) of compound (10 μM): 54.3 ± 0.32 % control
[3]
  Survival (% control) of compound (10 μM): 79.4 ± 0.08 % control
[4]
  Survival (% control) of compound (10 μM): 70.9 ± 0.24 % control
[5]
  Survival (% control) of compound (10 μM): 82.4 ± 0.06 % control
[8]
  Survival (% control) of compound (10 μM): 100.1 ± 0.07 % control
[9]
  sub-G1 DNA peak: 17.92%
[10]
  Survival (% control) of compound (10 μM): 97.5 ± 0.02 % control
[11]
  Survival (% control) of compound (10 μM): 75.8 ± 0.10 % control

## O=[N+]([O-])c1ccc(C(=Nc2ccc(C(F)(F)F)cc2)SSC(=Nc2ccc(C(F)(F)F)cc2)c2ccc([N+](=O)[O-])cc2)cc1 [Compound 4]
[1]
  Survival (% control) of compound (10 μM): 84.6 ± 0.08 % control
[2]
  Survival (% control) of compound (10 μM): 59.6 ± 0.28 % control
[3]
  Survival (% control) of compound (10 μM): 80.1 ± 0.08 % control
[4]
  Survival (% control) of compound (10 μM): 64.6 ± 0.28 % control
[5]
  Survival (% control) of compound (10 μM): 65.4 ± 0.11 % control
[8]
  Survival (% control) of compound (10 μM): 102.5 ± 0.06 % control
[9]
  sub-G1 DNA peak: 20.64%
[10]
  Survival (% control) of compound (10 μM): 92.6 ± 0.05 % control
[11]
  Survival (% control) of compound (10 μM): 66.0 ± 0.14 % control

## Cc1cc(C(=Nc2ccc(Cl)cc2)SSC(=Nc2ccc(Cl)cc2)c2ccc([N+](=O)[O-])c(C)c2)ccc1[N+](=O)[O-] [Compound 7]
[1]
  Survival (% control) of compound (10 μM): 92.4 ± 0.04 % control
[2]
  Survival (% control) of compound (10 μM): 51.7 ± 0.34 % control
[3]
  Survival (% control) of compound (10 μM): 96.2 ± 0.02 % control
[4]
  Survival (% control) of compound (10 μM): 71.2 ± 0.23 % control
[5]
  Survival (% control) of compound (10 μM): 78.7 ± 0.07 % control
[8]
  Survival (% control) of compound (10 μM): 101.7 ± 0.09 % control
[9]
  sub-G1 DNA peak: 26.22%
[10]
  Survival (% control) of compound (10 μM): 99.6 ± 0.02 % control
[11]
  Survival (% control) of compound (10 μM): 67.4 ± 0.13 % control

## O=[N+]([O-])c1cc(N=C(SSC(=Nc2ccc(F)c([N+](=O)[O-])c2)c2ccc(C(F)(F)F)cc2)c2ccc(C(F)(F)F)cc2)ccc1F [Compound 23]
[1]
  Survival (% control) of compound (10 μM): 94.3 ± 0.03 % control
[2]
  Survival (% control) of compound (10 μM): 57.1 ± 0.30 % control
[3]
  Survival (% control) of compound (10 μM): 65.8 ± 0.14 % control
[4]
  Survival (% control) of compound (10 μM): 57.8 ± 0.33 % control
[5]
  Survival (% control) of compound (10 μM): 64.4 ± 0.12 % control
[7]
  growth inhibition / apoptosis in murine melanoma B16: significantly made
[8]
  Survival (% control) of compound (10 μM): 92.4 ± 0.16 % control
[9]
  sub-G1 DNA peak: 4.35%
[10]
  Survival (% control) of compound (10 μM): 93.2 ± 0.04 % control
[11]
  Survival (% control) of compound (10 μM): 80.2 ± 0.08 % control

From patent publication US8680155B2, “Synthesis and antitumor activity of novel bis(benzylidene-benzenamine)disulfides” (Kaohsiung Medical University, priority 2011, dated 2014)
